Test results reported in a melting point compilation (Tetko et al.; mined from patent text by program, amines drawn as free bases though some values may be those of a salt).

SMILES | melting point [°C]
Cc1nc(OCC=C(F)F)c(C#N)c(N2CCc3ccccc3CC2)n1 | 158 to 159
COC1SC=C(C)NC1=O (stereo not given) | 157 to 160
Cn1c(C(=O)N[C@H]2CCCC[C@H]2C(=O)N[C@H](C#N)C2CC2)cc2ccccc21 | 242 to 246
N#Cc1ccc(CC[C@H]2CC[C@H](CO)CC2)cc1 | 119 to 121
Cn1nnc2sc([N+](=O)[O-])cc2c1=O | 164 to 168
CCOC(=O)c1c(C)[nH]c2ccc(OCC3CO3)cc12 (stereo not given) | 93 to 94
C[C@@H](CNC(=O)COC(=O)c1cc(S(N)(=O)=O)c(Cl)cc1NCc1ccco1)O[N+](=O)[O-] | 125 to 138
Cc1nc2c(cc1C#CCO)c(=O)c(C(=O)NCc1ccc(Cl)cc1)cn2C | 217 to 218
CC(=O)CC(=O)Nc1nnc(C(C)(C)C)s1 | 166 to 168
Cc1ccccc1CC(=NC#N)NC(NC(=O)Cc1ccc(Cl)cc1)C(C)(C)C (stereo not given) | 183 to 185
Cc1ccc(C(O[Si](C)(C)C(C)(C)C)C(=O)NO)cc1 (stereo not given) | 109 to 111
CCn1ccccc1=S | 50
Oc1cncc(Oc2ccccc2)c1 | 107
Cc1ccc(Br)cc1NC(=O)NCCCNCCCCl | 145 to 148
CON1C(=O)CC2(CCN(C(=O)OCCBr)CC2)C1=O | 134
COC(=O)c1ccc(OC)c(O)c1O | 100 to 101
CCCCCCCCCCCCCCCCCCOc1cc(OCCCOc2ccc(S(C)=O)cc2)cc(C(=O)OC)c1 (stereo not given) | 86 to 88
Cc1cncc(C)c1-c1c(C)cc(C(C#N)C#N)cc1C | 58 to 60
CCCCC1CCCC2=C1C(=O)c1cc(C)c(C)cc1C2=O (stereo not given) | 88 to 90
CCOC(=O)c1ncc(-c2cccs2)s1 | 68 to 69
CC(=O)Nc1ccc(OC(F)F)c(F)c1 | 112 to 113
COc1cccc(F)c1COC1(C(F)(F)F)CN(C)C(=O)Nc2ccc(Cl)cc21 (stereo not given) | 172 to 174
O=C(O)CCCOc1cccc(C2CCCCC2)c1 | 83 to 84
CC(C)(C)OC(=O)CN(Cc1cccc(Cl)c1)S(=O)(=O)c1ccc2c(Cl)cnc(Cl)c2c1 | 141 to 143

Next, values leading:

melting point [°C] | SMILES
150 to 152 | CCCC(=O)c1cnc2c(OC)cccc2c1Nc1c(C)cc2c(c1C)OCO2
134 to 135 | CCCCCOc1cc(C(=O)O)cc(N)c1-c1ccccc1
142 to 143 | C#CCNC(=O)c1cccc(-c2cccc(OCCc3ccc(OC)c(OC)c3)n2)c1
180 to 182 | COc1ccc(-n2cnc3c(OC)nc4ccccc4c32)cc1
88 to 98 | Fc1cccc(-c2nc(-c3ccccn3)no2)c1
159 to 162 | COc1ccccc1N1CCN(CC2(C)N=C(c3cccnc3)NC2=O)CC1 (stereo not given)
240 | COc1ccccc1[C@@]1(O)[C@H](O)CC(c2ccccc2)(c2ccccc2)[C@@H]2CN(C(=O)Cc3cn(C)c4ccccc34)C[C@@H]21 (racemic)
195 | O=C(O)c1cn(-c2ccnc3ccccc23)cc1C1CC1
190 to 191 | COc1ccc(CC(=O)NC(NC(=NC#N)Nc2cc(F)ccc2F)C(C)(C)C)cc1OC (stereo not given)
202 to 204 | CN(CCCOc1ccc(C=C2SC(=O)NC2=O)cc1)c1nc2ccccc2o1
190 to 192 | COc1cccc(Nc2n[nH]c3ncn(-c4cccc(Cl)c4)c(=N)c23)c1
143 to 144 | CONC(=O)Nc1ccc(-c2sc3c(c2CN(C)C(C)c2ccccn2)c(=O)n(-c2ccccn2)c(=O)n3Cc2c(F)cccc2F)cc1 (stereo not given)
157 to 158 | CCN(c1nc(C)cc(-c2ccccc2C(F)(F)F)n1)c1c(Br)cc(N(C)C)cc1OC
98 | Cc1ccc(NC(=O)Oc2ccc3c(c2)N(Cc2ccccc2)CCC3)cc1
129 to 131 | COc1cc(COc2nn(-c3ccccc3)cc2/C=C/C(N)=S)ccc1OCc1nc(-c2ccco2)oc1C
206 to 208 | NC(=O)c1cc2cc(N3CCN(Cc4ccccc4)CC3)ccc2o1
